Measurements taken from BindingDB's records for doi:10.1038/nchembio.65 (University of California San Francisco, 2008).

Experiment: Inhibition of yeast prion protein Sup35 infection of PSI yeast spheroplast cells

With O=C1C(I)=CC(=C(c2ccccc2C(=O)O)C2C=C(I)C(=O)C(I)=C2)C=C1I [TERAIODOPHENOLPHATHALIN] the EC50 was 100 µM.
